Data on six compounds can be found in paper PMC3853740, “Chlorinated Didemnins from the Tunicate Trididemnum solidum” (Marine Drugs, 2013).

SMILES strings stand for the structures. Where two headings read alike, the source gives them in different places. *1 amine or outer side, *2 acyl side, *3 side chain or, on linkers, in order; H or OH if unused. Where a SMILES comes first, the peptide text is derived from it. Bridges are numbered along the chain shown (N, C = ends). [ ]: non-standard residue; d: D form. X1 = CC[C@H](C)[C@@H](N[*:1])[C@@H](O)CC(=O)O[C@H](C(=O)[C@H](C)C(=O)[*:2])C(C)C; X2 = CC(C(=O)C(OC(=O)CC(O)C(N[*:1])C(C)C)C(C)C)C(=O)[*:2]; X3 = COc1ccc(CC(C(=O)[*:2])N(C)[*:1])cc1Cl; NMeY = CN[C@@H](Cc1ccc(O)cc1)C(=O)O; dNMeL = CN[C@H](CC(C)C)C(=O)O; NMeL = CN[CH](CC(C)C)C(=O)O

Assay [1] deals with nuclear factor-kappa B (NF-κB). Kind of assay: Inhibition of NF-κB mediated transcription, reporter gene assay in PMA induced SW1353 chondrocytes. Format: cell-based. The conditions noted are these: Homo sapiens, SW1353 cells. The method, then: (§1) The isolated compounds 1–4 were tested in a series of in vitro cell-based assays for their effects on selected targets involved in the process of inflammation and cancer. Inflammation and oxidative stress are known to be linked to the development of many disorders such as cancer, organ damage, and neurodegenerative conditions. The NF-κB family of transcription factors plays a key role in inflammation, cell cycle regulation, apoptosis, and oncogenesis by controlling gene network expression. The activation of NF-κB involves many cellular processes leading to inflammation and development of cancer. In the assay for NF-κB activity, a luciferase construct with binding sites for specificity protein (SP-1) was used as a control because this transcription factor is relatively unresponsive to inflammatory mediators such as phorbol myristate acetate (PMA). Inducible nitric oxide synthase (iNOS) plays a key role in regulation of blood pressure, the immune system, infection, and inflammation. Overproduction of nitric oxide (NO) by iNOS has been implicated in various pathological processes such as septic shock, inflammation, rheumatoid arthritis, cancer, and tissue damage. The increase in NO response caused mainly by endotoxins and proinflammatory mediators such as lipopolysaccharide (LPS) can be reduced by anti-inflammatory agents acting as iNOS inhibitors. The isolated metabolites were also evaluated for their cytotoxicity towards four human solid tumor cell lines (SK-MEL: melanoma; KB: epidermal carcinoma; BT549: breast carcinoma and SK-OV-3: ovarian carcinoma) and non-cancer kidney cells (Vero: monkey kidney fibroblasts).
(§2) Similar to the effect of doxorubicin, the compounds (1–3) were less toxic towards noncancerous cells (Vero cells) which were included for comparison. The strong anticancer activity can be partly explained due to a strong inhibition of NF-κB mediated transcription that may cause enhanced apoptosis and cell death.
(§3) Inhibition of NF-κB mediated transcription was determined in SW1353 cells by a reporter gene assay as described by Ma et al.. Inhibition of iNOS activity was determined in RAW264.7 cells as described earlier. In vitro cytotoxicity was determined against a panel of four solid tumor cell lines and compared with noncancerous kidney cells (Vero). Parthenolide and doxorubicin were used as positive controls for anti-inflammatory and cytotoxic activity, respectively.
For orientation: A reporter such as luciferase makes a cellular process visible.

For a further assay, the system named is SK-MEL. The assay is described as follows: In vitro cytotoxicity, SK-MEL melanoma. In kind it is cell-based. The conditions noted are these: Homo sapiens, read-out: Anti-cell proliferative activity IC50, SK-MEL. The method, then: as §1, §3
The target of assay [2] is T1, inducible nitric oxide synthase (iNOS) (Mus musculus, UniProt P29477).
T1 construct: endogenous in cells; host or cells: RAW264.7 macrophages, LPS induced
T1 sequence (P29477 1-1144): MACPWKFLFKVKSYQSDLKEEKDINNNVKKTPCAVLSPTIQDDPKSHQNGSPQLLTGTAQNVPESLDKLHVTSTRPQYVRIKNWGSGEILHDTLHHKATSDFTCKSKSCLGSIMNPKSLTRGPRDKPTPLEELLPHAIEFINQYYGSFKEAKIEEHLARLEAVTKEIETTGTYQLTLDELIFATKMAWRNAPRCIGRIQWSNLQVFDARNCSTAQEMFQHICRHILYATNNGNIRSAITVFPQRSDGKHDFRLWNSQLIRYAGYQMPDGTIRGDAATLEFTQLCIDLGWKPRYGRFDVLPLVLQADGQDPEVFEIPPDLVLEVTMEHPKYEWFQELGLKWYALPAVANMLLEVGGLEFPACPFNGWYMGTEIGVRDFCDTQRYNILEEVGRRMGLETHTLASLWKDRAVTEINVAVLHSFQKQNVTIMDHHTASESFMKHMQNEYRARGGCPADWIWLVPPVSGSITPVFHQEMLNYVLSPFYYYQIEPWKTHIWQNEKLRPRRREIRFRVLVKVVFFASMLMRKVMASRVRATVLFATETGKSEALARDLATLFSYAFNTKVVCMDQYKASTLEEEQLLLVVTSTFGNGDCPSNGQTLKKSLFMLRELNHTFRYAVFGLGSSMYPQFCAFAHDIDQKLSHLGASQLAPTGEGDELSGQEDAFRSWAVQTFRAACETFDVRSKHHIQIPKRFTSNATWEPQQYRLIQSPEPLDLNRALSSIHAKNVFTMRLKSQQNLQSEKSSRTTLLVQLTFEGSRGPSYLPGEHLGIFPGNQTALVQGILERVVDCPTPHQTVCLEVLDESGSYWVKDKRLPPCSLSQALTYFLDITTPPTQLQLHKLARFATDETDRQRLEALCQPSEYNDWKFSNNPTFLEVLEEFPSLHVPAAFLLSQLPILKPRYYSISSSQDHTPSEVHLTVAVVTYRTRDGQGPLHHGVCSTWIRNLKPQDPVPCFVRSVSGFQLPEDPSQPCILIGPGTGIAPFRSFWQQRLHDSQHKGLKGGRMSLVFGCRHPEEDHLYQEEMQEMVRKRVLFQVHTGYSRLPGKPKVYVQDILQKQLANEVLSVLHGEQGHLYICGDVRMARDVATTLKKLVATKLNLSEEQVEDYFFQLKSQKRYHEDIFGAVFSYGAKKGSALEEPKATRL
Kind of assay: Inhibition of iNOS activity in LPS induced macrophages (RAW264.7 cells). In kind it is cell-based. As to the method:
as §1, §2, §3

The next assay relates to KB. Kind of assay: In vitro cytotoxicity, KB epidermal carcinoma. In kind it is cell-based. The conditions noted are these: Homo sapiens, read-out: Anti-cell proliferative activity IC50, KB. As to the method: as §1, §3
The next assay deals with BT-549. Kind of assay: In vitro cytotoxicity, BT-549 breast carcinoma. In kind it is cell-based. To be noted: Homo sapiens. As to the method: as §1, §3
The test system of a further assay is VERO. Kind of assay: In vitro cytotoxicity, Vero non-cancer kidney fibroblasts. Format: cell-based, monkey. The conditions noted are these: Primates, read-out: Anti-cell proliferative activity IC50, VERO. As to the method:
as §1, §3

For another assay, the system named is SK-OV-3. The assay is described as follows: In vitro cytotoxicity, SK-OV-3 ovarian carcinoma. In kind it is cell-based. The conditions noted are these: Homo sapiens. As to the method: as §1, §3
The mark [3] stands for this setting: RAW264.7 cells, LPS induced, read-out: iNOS inhibition IC50.
The mark [4] stands for this setting: BT-549, read-out: Anti-cell proliferative activity IC50, BT-549.
[5] abbreviates: SK-OV-3, read-out: Anti-cell proliferative activity IC50, SK-OV-3.

One may read the IC50 as the midpoint of a concentration-inhibition curve. For `CNC(CC(C)C)C(=O)NC1C(=O)NC(C(C)C)C(O)CC(=O)OC(C(C)C)C(=O)C(C)C(=O)NC(CC(C)C)C(=O)N2CCCC2C(=O)N(C)C(Cc2ccc(OC)c(Cl)c2)C(=O)OC1C` (centres unmarked) [Compound 2, nor-N,O-diMe-o-chlorotyrosine derivative of didemnin A] (H-[NMeL]T[X2]LP[X3]; ester 2-C; configuration not given here), the half-maximal inhibitory concentration (IC50) in assay [1] amounted to 620 nM; in the assay with SK-MEL, 60 nM; in assay [2] (setting [3]) it was 420 nM; with KB, 420 nM; in the assay with BT-549 (setting [4]) it was 160 nM; in the assay on VERO it was 2080 nM. In addition, the half-inhibitory concentration (IC50) with SK-OV-3 (setting [5]) was determined as 380 nM.
In the case of `COc1cccc2c1C(=O)c1c(O)c3c(c(O)c1C2=O)C[C@@](O)(C(=O)CO)C[C@@H]3O[C@H]1C[C@H](N)[C@H](O)[C@H](C)O1` [Doxorubicin, reference compound], the IC50 in the assay on SK-MEL (melanoma) turned out to be 1100 nM; in the assay on KB (epidermal carcinoma) it was 1660 nM; in the assay on BT-549 (BT-549, breast carcinoma, read-out: Anti-cell proliferative activity IC50, BT-549) it was 1010 nM; in the assay with VERO (noncancerous monkey kidney fibroblasts) it was 14000 nM; in the assay with SK-OV-3 (SK-OV-3, ovarian carcinoma, read-out: Anti-cell proliferative activity IC50, SK-OV-3), 1660 nM.
In the case of `C=C1C(=O)O[C@H]2[C@H]1CC/C(C)=C/CC[C@@]1(C)O[C@@H]21` [Parthenolide, reference compound], the IC50 in assay [1] and in assay [2] (setting [3]) was 2800 nM each time.
In the case of `CC[C@H](C)[C@H]1NC(=O)[C@@H](NC(=O)[C@@H](CC(C)C)NC)[C@@H](C)OC(=O)[C@H](Cc2ccc(OC)cc2)N(C)C(=O)[C@@H]2CCCN2C(=O)[C@H](CC(C)C)NC(=O)[C@@H](C)C(=O)[C@H](C(C)C)OC(=O)C[C@@H]1O` [Compound 3, didemnin A] (H-[dNMeL]T[X1]LP[NMeY](Me); ester 2-C), the IC50 in assay [1] was 190 nM; in the assay on SK-MEL it was 55 nM; in assay [2], 190 nM; with KB, 160 nM; with BT-549 (setting [4]), 70 nM; in the assay on VERO it was 4780 nM. In the assay on SK-OV-3 (setting [5]), the IC50 turned out to be 160 nM.
With `CCC(C)C1NC(=O)C(NC(=O)C(CC(C)C)NC)C(C)OC(=O)C(Cc2ccc(OC)c(Cl)c2)N(C)C(=O)C2CCCN2C(=O)C(CC(C)C)NC(=O)C(C)C(=O)C(C(C)C)OC(=O)CC1O` (centres unmarked) [Compound 1, N,O-diMe-o-chlorotyrosine derivative of didemnin A], the IC50 was determined as 260 nM in assay [1]; 120 nM in the assay on SK-MEL; 400 nM in assay [2] (setting [3]); 260 nM in the assay with KB; 160 nM in the assay on BT-549 (setting [4]); 4800 nM with VERO. Further, the IC50 in the assay on SK-OV-3 (setting [5]) is 260 nM.
Regarding `CC[C@H](C)[C@H]1NC(=O)[C@@H](NC(=O)[C@@H](CC(C)C)N(C)C(=O)[C@@H]2CCCN2C(=O)C(C)O)[C@@H](C)OC(=O)[C@H](Cc2ccc(OC)cc2)N(C)C(=O)[C@@H]2CCCN2C(=O)[C@H](CC(C)C)NC(=O)[C@@H](C)C(=O)[C@H](C(C)C)OC(=O)C[C@@H]1O` (some centres unmarked) [Compound 4, didemnin B], the IC50 in assay [1] is 30 nM; in the assay on SK-MEL, 22 nM; in assay [2], 2 nM; in the assay with KB it was 90 nM; with BT-549 (setting [4]) it was 20 nM; in the assay on VERO it was 150 nM. In addition, the IC50 in the assay with SK-OV-3 (setting [5]) is 100 nM.
